Data taken from PubChem BioAssay AID248 (DTP/NCI, 2004).
Several values for one entry are separate records, joined by “and”; a condition that tells them apart may be missing. Identical values can stand only once. Inconclusive results and toxic doses are left out.

System: L1210 leukemia ip in BDF1 mice, survival T/C
Assay: NCI In Vivo Anticancer Drug Screen. Data for tumor model L1210 Leukemia (intraperitoneal) in B6D2F1 (BDF1) mice
Settings: endpoint: mean survival time, higher = longer survival
How it was run: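 Read-out is survival time, reported as the treated-group measurement over the vehicle-control measurement.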

[1] = dose: 50.0 mg/kg/injection, schedule: Q04DX003 (ip), vehicle: saline
[2] = dose: 50.0 mg/kg/injection, schedule: Q01DX009 (ip), vehicle: saline
[3] = dose: 100.0 mg/kg/injection, schedule: Q04DX003 (ip), vehicle: saline
[4] = dose: 200.0 mg/kg/injection, schedule: Q04DX003 (ip), vehicle: saline

## CC[n+]1cccc(-c2ccc(NC(=O)/C=C/c3ccc(C(=O)Nc4ccc(-c5ccc[n+](CC)c5)cc4)cc3)cc2)c1
dose: 7.1 mg/kg/injection, schedule: Q01DX001 (ip), vehicle: carboxymethylcellulose (CMC)
  T/C: 118 % of control
dose: 12.5 mg/kg/injection, schedule: Q01DX Z (ip), vehicle: carboxymethylcellulose (CMC)
  T/C: 241 % of control
dose: 25.0 mg/kg/injection, schedule: Q01DX001 (ip), vehicle: carboxymethylcellulose (CMC)
  T/C: 152 % of control and 157 % of control
dose: 25.0 mg/kg/injection, schedule: Q01DX Z (ip), vehicle: carboxymethylcellulose (CMC)
  T/C: 211 % of control
dose: 50.0 mg/kg/injection, schedule: Q01DX001 (ip), vehicle: carboxymethylcellulose (CMC)
  T/C: 202 % of control
dose: 50.0 mg/kg/injection, schedule: Q01DX Z (ip), vehicle: carboxymethylcellulose (CMC)
  T/C: 164 % of control
dose: 100.0 mg/kg/injection, schedule: Q01DX001 (ip), vehicle: carboxymethylcellulose (CMC)
  T/C: 238 % of control
dose: 200.0 mg/kg/injection, schedule: Q01DX001 (ip), vehicle: carboxymethylcellulose (CMC)
  T/C: 263 % of control
dose: 300.0 mg/kg/injection, schedule: Q01DX001 (ip), vehicle: carboxymethylcellulose (CMC)
  T/C: 120 % of control
dose: 450.0 mg/kg/injection, schedule: Q01DX001 (ip), vehicle: carboxymethylcellulose (CMC)
  T/C: 124 % of control
dose: 675.0 mg/kg/injection, schedule: Q01DX001 (ip), vehicle: carboxymethylcellulose (CMC)
  T/C: 107 % of control

## C[N+](C)(C)CCCC1C2CCC(C2)C1C#N (centres undefined)
dose: 3.13 mg/kg/injection, schedule: Q01DX009 (ip), vehicle: saline
  T/C: 101 % of control
dose: 6.25 mg/kg/injection, schedule: Q01DX009 (ip), vehicle: saline
  T/C: 97 % of control
dose: 12.5 mg/kg/injection, schedule: Q01DX009 (ip), vehicle: saline
  T/C: 98 % of control and 101 % of control
dose: 12.5 mg/kg/injection, schedule: Q04DX003 (ip), vehicle: saline
  T/C: 102 % of control
dose: 25.0 mg/kg/injection, schedule: Q04DX003 (ip), vehicle: saline
  T/C: 98 % of control
[1]
  T/C: 96 % of control

## O=C(Cl)C1(Br)CC2c3ccccc3C1([N+](=O)[O-])c1ccccc12 (centres undefined)
dose: 100.0 mg/kg/injection, schedule: Q01DX009 (ip), vehicle: Klucel (hydroxypropylcellulose) (HPC)
  T/C: 88 % of control
dose: 100.0 mg/kg/injection, schedule: Q04DX003 (ip), vehicle: Klucel (hydroxypropylcellulose) (HPC)
  T/C: 108 % of control
dose: 200.0 mg/kg/injection, schedule: Q01DX009 (ip), vehicle: Klucel (hydroxypropylcellulose) (HPC)
  T/C: 91 % of control
dose: 200.0 mg/kg/injection, schedule: Q04DX003 (ip), vehicle: Klucel (hydroxypropylcellulose) (HPC)
  T/C: 95 % of control
dose: 400.0 mg/kg/injection, schedule: Q01DX009 (ip), vehicle: Klucel (hydroxypropylcellulose) (HPC)
  T/C: 96 % of control
dose: 400.0 mg/kg/injection, schedule: Q04DX003 (ip), vehicle: Klucel (hydroxypropylcellulose) (HPC)
  T/C: 104 % of control

## N#Cc1nn(C2OC(CO)C(O)C2O)c2ncnc(N)c12 (centres undefined)
dose: 25.0 mg/kg/injection, schedule: Q01DX009 (ip), vehicle: saline
  T/C: 110 % of control
dose: 50.0 mg/kg/injection, schedule: Q01DX005 (ip), vehicle: saline
  T/C: 117 % of control
[2]
  T/C: 114 % of control
dose: 100.0 mg/kg/injection, schedule: Q01DX005 (ip), vehicle: saline
  T/C: 97 % of control

## CC1(C)OC2C3COC(O3)C(O)C2O1 (centres undefined)
dose: 100.0 mg/kg/injection, schedule: Q04DX002 (ip), vehicle: saline with Tween-80
  T/C: 99 % of control
dose: 200.0 mg/kg/injection, schedule: Q04DX002 (ip), vehicle: saline with Tween-80
  T/C: 99 % of control
dose: 400.0 mg/kg/injection, schedule: Q04DX002 (ip), vehicle: saline with Tween-80
  T/C: 96 % of control

## C(CC1CO1)CC1OC1CC1CO1 (centres undefined)
dose: 15.0 mg/kg/injection, schedule: Q01DX009 (ip), vehicle: Klucel (hydroxypropylcellulose) (HPC)
  T/C: 102 % of control
dose: 18.0 mg/kg/injection, schedule: Q04DX003 (ip), vehicle: saline with Tween-80
  T/C: 110 % of control
dose: 26.0 mg/kg/injection, schedule: Q04DX003 (ip), vehicle: saline with Tween-80
  T/C: 110 % of control
dose: 30.0 mg/kg/injection, schedule: Q01DX009 (ip), vehicle: Klucel (hydroxypropylcellulose) (HPC)
  T/C: 105 % of control
dose: 39.0 mg/kg/injection, schedule: Q04DX003 (ip), vehicle: saline with Tween-80
  T/C: 106 % of control
dose: 40.0 mg/kg/injection, schedule: Q04DX003 (ip), vehicle: saline
  T/C: 108 % of control
dose: 45.0 mg/kg/injection, schedule: Q01DX009 (ip), vehicle: Klucel (hydroxypropylcellulose) (HPC)
  T/C: 108 % of control
dose: 59.0 mg/kg/injection, schedule: Q04DX003 (ip), vehicle: saline with Tween-80
  T/C: 108 % of control
dose: 60.0 mg/kg/injection, schedule: Q01DX009 (ip), vehicle: Klucel (hydroxypropylcellulose) (HPC)
  T/C: 113 % of control
dose: 80.0 mg/kg/injection, schedule: Q04DX003 (ip), vehicle: saline
  T/C: 118 % of control
dose: 89.0 mg/kg/injection, schedule: Q04DX003 (ip), vehicle: saline with Tween-80
  T/C: 117 % of control
dose: 120.0 mg/kg/injection, schedule: Q01DX009 (ip), vehicle: other
  T/C: 119 % of control
dose: 133.0 mg/kg/injection, schedule: Q01DX009 (ip), vehicle: saline with Tween-80
  T/C: 97 % of control
dose: 133.0 mg/kg/injection, schedule: Q04DX003 (ip), vehicle: saline with Tween-80
  T/C: 115 % of control
dose: 160.0 mg/kg/injection, schedule: Q04DX003 (ip), vehicle: saline
  T/C: 154 % of control

## O=C1c2ccccc2C(=O)c2c1c(O)c1ccccc1c2O
dose: 100.0 mg/kg/injection, schedule: Q#A X Z (im), vehicle: other
  T/C: 96 % of control
dose: 100.0 mg/kg/injection, schedule: Q#A X Z (ip), vehicle: other
  T/C: 107 % of control
dose: 100.0 mg/kg/injection, schedule: Q#A X Z (sc), vehicle: other
  T/C: 100 % of control
dose: 200.0 mg/kg/injection, schedule: Q#A X Z (im), vehicle: other
  T/C: 97 % of control
dose: 200.0 mg/kg/injection, schedule: Q#A X Z (ip), vehicle: other
  T/C: 96 % of control
dose: 200.0 mg/kg/injection, schedule: Q#A X Z (sc), vehicle: other
  T/C: 107 % of control
dose: 300.0 mg/kg/injection, schedule: Q#A X Z (im), vehicle: other
  T/C: 94 % of control
dose: 300.0 mg/kg/injection, schedule: Q#A X Z (ip), vehicle: other
  T/C: 92 % of control
dose: 300.0 mg/kg/injection, schedule: Q#A X Z (sc), vehicle: other
  T/C: 97 % of control
dose: 400.0 mg/kg/injection, schedule: Q#A X Z (im), vehicle: other
  T/C: 94 % of control
dose: 400.0 mg/kg/injection, schedule: Q#A X Z (ip), vehicle: other
  T/C: 92 % of control
dose: 400.0 mg/kg/injection, schedule: Q#A X Z (sc), vehicle: other
  T/C: 96 % of control
dose: 500.0 mg/kg/injection, schedule: Q#A X Z (oral), vehicle: other
  T/C: 96 % of control
dose: 750.0 mg/kg/injection, schedule: Q#A X Z (oral), vehicle: other
  T/C: 100 % of control

## CCC1(C)C(=O)N(Br)C(=O)N1Br (centres undefined)
[2]
  T/C: 91 % of control
[1]
  T/C: 100 % of control
dose: 100.0 mg/kg/injection, schedule: Q01DX001 (ip), vehicle: Klucel (hydroxypropylcellulose) (HPC)
  T/C: 106 % of control
dose: 100.0 mg/kg/injection, schedule: Q01DX009 (ip), vehicle: saline
  T/C: 95 % of control
[3]
  T/C: 105 % of control
dose: 200.0 mg/kg/injection, schedule: Q01DX001 (ip), vehicle: Klucel (hydroxypropylcellulose) (HPC)
  T/C: 102 % of control
dose: 200.0 mg/kg/injection, schedule: Q01DX009 (ip), vehicle: saline
  T/C: 95 % of control
[4]
  T/C: 97 % of control

## CC1C2C=CC1C(c1c3ccc(=O)c(O)c-3oc3c(O)c(O)ccc13)C2C(=O)O (centres undefined)
[3]
  T/C: 105 % of control
[4]
  T/C: 103 % of control
dose: 400.0 mg/kg/injection, schedule: Q04DX003 (ip), vehicle: saline
  T/C: 100 % of control

## CC12CC3(C)CC(C)(C1)CC(NC(=O)N(CCCl)N=O)(C2)C3
dose: 20.0 mg/kg/injection, schedule: Q01DX001 (ip), vehicle: other
  T/C: 155 % of control
dose: 187.0 mg/kg/injection, schedule: Q01DX001 (ip), vehicle: other
  T/C: 162 % of control
dose: 250.0 mg/kg/injection, schedule: Q01DX001 (ip), vehicle: other
  T/C: 187 % of control
dose: 375.0 mg/kg/injection, schedule: Q01DX001 (ip), vehicle: other
  T/C: 211 % of control
dose: 500.0 mg/kg/injection, schedule: Q01DX001 (ip), vehicle: other
  T/C: 258 % of control
dose: 750.0 mg/kg/injection, schedule: Q01DX001 (ip), vehicle: other
  T/C: 274 % of control

## C=C(C)CC/C=C/C
dose: 50.0 mg/kg/injection, schedule: Q01DX001 (ip), vehicle: saline
  T/C: 115 % of control
dose: 100.0 mg/kg/injection, schedule: Q01DX001 (ip), vehicle: saline
  T/C: 115 % of control
dose: 200.0 mg/kg/injection, schedule: Q01DX001 (ip), vehicle: saline
  T/C: 110 % of control
